This passage reports IC50 results from ChEMBL document CHEMBL1132573, “Novel antitumor 2-cyanoaziridine-1-carboxamides” (J Med Chem, 1999).

In general, pIC50 refers to the negative decadic logarithm of the IC50, by convention in mol/L. Low values mean a high IC50, high ones a low IC50.

Common to all, as to type: functional, cell-based
Assay [1] relates to RPMI-8226. Description: Inhibition of cell growth in drug resistant 8226 myeloma cell line. The note with it: Homo sapiens.
The test system of assay [2] is RPMI-8226. In words: Inhibition of cell growth in drug sensitive 8226 myeloma cell line. The note with it: Homo sapiens.
For assay [3], the system named is A549. Description: Inhibition of cell growth in (A-549) lung cell line. The following applies: Homo sapiens.
Assay [4] has as its system A-375. Description: Inhibition of cell growth in (A375) melan cell line. The note with it: Homo sapiens.
Assay [5] concerns L1210. In words: Inhibition of cell growth in (L1210 leukemia) MDR cells determined by MTT assay. The note with it: Mus musculus. (Tetrazolium dyes change colour on reduction, which living cells bring about.)
In assay [6] the test system is L1210. In words: Inhibition of cell growth in drug sensitive L1210 leukemia cell line determined by MTT assay. The note with it: Mus musculus.
Assay [7] concerns MCF7. Description: Inhibition of cell growth in (MCF7 breast) dox cell line. The following applies: Homo sapiens.
In assay [8] the test system is MCF7. Description: Inhibition of cell growth in (MCF7 breast) mitox cell line. The note with it: Homo sapiens.
Assay [9] relates to MCF7. In words: Inhibition of cell growth in drug sensitive MCF-7 breast cell line. The following applies: Homo sapiens.
Assay [10] deals with OVCAR-3. In words: Inhibition of cell growth in (OVCAR-3) ovarian cell line. The note with it: Homo sapiens.
Assay [11] relates to WiDr. In words: Inhibition of cell growth in drug resistant WiDr colon cell line. The following applies: Homo sapiens.
Assay [12] concerns WiDr. Description: Inhibition of cell growth in drug sensitive WiDr colon cell line. The following applies: Homo sapiens.

The structures appear in SMILES notation. pIC50: −log10 of the molar value. Some results are limits rather than exact numbers.

With `N#CC1CN1C(=O)NCc1ccccc1` (configuration not stated), the pIC50 was 4.96 in [1]; 5.05 in assay [2]; 5.13 in [3]; 4.96 in [4]; 5.00 in [5]; 5.42 in assay [6]. Besides, the pIC50 was 5.22 in assay [7]; 5.47 in [8]; 5.13 in assay [9]; 5.30 in [10]; 5.00 in assay [11]; 5.28 in assay [12].

For the molecule `CC(=O)c1cccc(NC(=O)N2CC2C#N)c1` (configuration not stated), the negative logarithm of the IC50 (pIC50) in assay [1] was 5.02; in [2], 5.06; in assay [3], 5.25; in assay [4] it was 5.10; in assay [5], 5.10; in assay [6], 5.02. The negative logarithm of the IC50 (pIC50) in assay [7] was 5.49; in assay [8], 5.46; in assay [9] it was 5.44; in [10] it was 5.00; in [11], 5.05; in [12], 5.48.

On to `N#CC1CN1C(=O)Nc1ccc(Cl)cc1Cl` (configuration not stated), for which the negative-log IC50 (pIC50) in assay [1] was 5.03; in assay [2] it was 5.33; in [3] it was 5.60; in assay [4] it was under 4.41; in [5], 4.48; in [6] it was 3.68. The pIC50 in assay [7] is 5.96; in [8] it was 6.46; in [9], 6.05; in assay [10], 4.46; in [11], 5.72; in [12] it was 5.66.

`N#CC1CN1C(=O)Nc1cccnc1` (configuration not stated): the pIC50 in assay [1] is 4.82; in assay [2], 4.92; in assay [3], 4.80; in assay [4], 4.92; in assay [5], 4.80; in [6], 4.96. Besides, the pIC50 in assay [7] was 5.18; in assay [8] it was 5.27; in [9], 5.38; in [10] it was 5.00; in assay [11] it was 4.74; in [12] it was 5.22.

With `CCNC(=O)N1CC1C#N` (configuration not stated), the pIC50 in assay [1] is 4.59; in assay [2], 4.66; in [3] it was 4.74; in assay [4] it was 4.44; in assay [5] it was 4.85; in [6], 4.85. Also, the negative logarithm of the IC50 (pIC50) is 4.70 in assay [7]; 5.00 in assay [8]; 4.54 in assay [9]; 4.85 in [10]; 5.15 in [11]; 5.40 in assay [12].

Consider `N#CC1CN1C(=O)Nc1ccc(F)cc1` (configuration not stated), for which the pIC50 in assay [1] was 5.23; in assay [2] it was 5.30; in assay [3], 5.21; in assay [4], 5.47; in assay [5], 5.23; in assay [6], 5.14. For the same molecule, the pIC50 is 5.62 in [7]; 5.57 in [8]; 5.72 in assay [9]; 5.23 in assay [10]; 5.05 in [11]; 5.68 in [12].
